This note sets out measurements from patent publication US8551972B2, “Agonists of A2A adenosine receptors for treating recurrent tumor growth” (Adenosine Therapeutics, LLC, priority 2007, dated 2013).

Structures are written as SMILES. “Also recorded” adds a separate entry of the source.

This test deals with C26 colorectal carcinoma liver metastases. The test is described as follows: Mouse model of hepatic ischemia/reperfusion (I/R)-accelerated outgrowth of C26 colorectal liver metastases. The format is in vivo, mouse (male Balb/C). To be noted: for ratio of hepatic replacement area (HRA) values in ischemic (clamped) left liver lobes versus non-ischemic right and median liver lobes: FIG. 4, I/R-subjected mice, day 10, sham about 1, untreated I/R about 2.5-fold; for accelerated (necrosis-associated) tumor growth in the clamped left liver lobes following I/R: left lobar I/R on day 5, livers day 10, ZM241385 1 micro-g/kg bolus + 10 ng/kg/min minipump, 3 days. The source says:
A mouse model has been enabled in which selective temporary occlusion of blood flow into the left liver lobe results in a profound acceleration of tumor growth in the clamped liver lobes, but not in the unclamped liver lobes. An A2A receptor agonist was then studied to determine its effect on the accelerated tumor growth.
• Male Balb/C mice (10-12 weeks) are housed under standard laboratory conditions with free access to water and chow and a 12-hour dark-light cycle. 2. Before the Experiment: Cell Culture • The murine colon carcinoma cell line C26 is cultured in Dulbecco's modified Eagle's medium supplemented with 5% heat-inactivated fetal calf serum, penicillin (100 units/ml) and streptomycin (100 μg/ml) in a 5% carbon dioxide environment. 3. Day 0: Induction of Liver Metastases • Confluent cultures of the C26 cell line are harvested by brief trypsinization (0.05 trypsin in 0.02% EDTA). • After centrifugation, single cell suspensions are prepared in PBS to a final concentration of 5×10^4 cells/100 μl. • Cell viability is determined by trypan blue staining, and should be ≧98%. • The induction of liver metastases is performed under inhalation anesthesia with a 1.5-2% isoflurane/O2 mixture using a mask. • Buprenorfine (3 μg/mouse) is administered intramuscularly prior to surgery to provide sufficient intra- and postoperative analgesia. • Surgical procedures are performed under aseptic conditions. • Body temperature is maintained at 36.5-37.5° C. by placing the animals on a heated table and covering them by aluminium foil. • Through a left lateral flank incision, 5×10^4 C26 colorectal carcinoma cells are injected into the splenic parenchyma (within an hour after trypsinisation). • After ten minutes, the spleen is removed to prevent intrasplenic tumor growth. • After the procedure a small amount of saline is left in the abdominal cavity and the peritoneum and skin are separately closed with 5.0 vicryl. • Animals are allowed to recover from anesthesia under standard laboratory conditions and are allowed free access to water and chow. 4. Day 0-5: • Micrometastases are allowed to develop throughout the liver for 5 days. 5. Day 5: Marine Model of Hepatic I/R • The induction of hepatic I/R is performed under inhalation anesthesia with a 1.5-2% isoflurane/O2 mixture using a mask. • Buprenorfine (3 μg/mouse) is administered intramuscularly prior to surgery to provide sufficient intra- and postoperative analgesia. • Surgical procedures are performed under aseptic conditions. • Body temperature is maintained at 36.5-37.5° C. by placing the animals on a heated table and covering them by aluminium foil. • ATL-313 solutions are prepared and suspended in osmotic minipumps (Alzet) at a dose of 3 ng/kg/min. Minipumps are placed in normal saline at 37° C. for at least 4 hours prior to the operation, to allow immediate drug delivery. • After laparotomy, mice receive an intraperitoneal bolus injection of 1 ng/kg ATL-313. • A control group received the A2AR antagonist ZM241385 as an intraoperative bolus (1 micro-g/kg) and subsequently continuously using osmotic intraperitoneal minipumps (10 ng/kg/min; 3 days). • Sham operated mice undergo laparotomy with exposure of the liver but without interruption of hepatic flow. • Partial hepatic I/R is induced by occluding the vascular inflow of the left lateral liver lobe for 45 minutes, corresponding to approximately 40% of the liver mass. • Surgical foil is placed over the laparotomy wound to avoid dehydration. • After removal of the clamps a small amount of saline is left in the abdominal cavity • The peritoneum and skin are separately closed with 5.0 vicryl. 6. Day 5-10: • Micrometastases are allowed to grow out to macrometastases (approximately 10-20% of the non-clamped lobes at day 10) for 5 days 7. Day 10: • Livers were harvested, fixed in formalin, and embedded in paraffin. Tissue sections were stained with H&E and the following parameters were assessed by an operator who was blinded to treatment. • 1. […]

The mark [1] stands for this setting: ATL-313 1 ng/kg bolus + 3 ng/kg/min minipump.

In the case of `COC(=O)N1CCC(CC#Cc2nc(N)c3ncn(C4OC(C(=O)NC5CC5)C(O)C4O)c3n2)CC1` (stereo not shown) [ATL313, 4-{3-[6-Amino-9-(5-cyclopropylcarbamoyl-3,4-dihydroxy-tetrahydro-furan-2-yl)-9H-purin-2-yl]-prop-2-ynyl}-piperidine-1-carboxylic Acid methyl ester], the “ratio of hepatic replacement area (HRA) values in ischemic (clamped) left liver lobes versus non-ischemic right and median liver lobes” value stood at 1. Besides, the “tissue necrosis (liver)” value (left lobar I/R on day 5 (45 min clamping), livers harvested day 10, H&E, ATL-313 1 ng/kg i.p. bolus + 3 ng/kg/min osmotic minipump) was “prevents; also recorded: almost completely prevented”. Besides, under setting [1], the “accelerated (necrosis-associated) tumor growth in the clamped left liver lobes following I/R” value (“accelerated” below) is listed as “prevents; also recorded: almost completely prevented”. For the same compound, for the setting “ATL-313 1 ng/kg bolus + 3 ng/kg/min minipump, listed as ATL”, the “accelerated” value is “prevents the increase in tumor growth”. Also, the “inflammation following I/R” value (left lobar I/R on day 5, ATL-313 1 ng/kg bolus + 3 ng/kg/min minipump) is reported as “almost completely prevented”.

Take `Nc1nc(NCCc2ccc(O)cc2)nc2nc(-c3ccco3)nn12` [ZM241385, reference compound]: the “ratio of hepatic replacement area (HRA) values in ischemic (clamped) left liver lobes versus non-ischemic right and median liver lobes” value is “increasing the left-to-right/median ratio, although this difference did not reach statistical significance”. In addition, under setting [1], the “accelerated” value is on record as “appears to aggravate tumor growth”.
